Data set [1] has as its system Human breast cancer MDA-MB-231_luc cells. As to the kind of experiment: In vivo pharmacodynamics, MDA-MB-231_luc subcutaneous xenograft tumor model. Particulars: 50 mg/kg PO BID x 21 days. How it is done: • Species: mouse • Strain: BALB/c nude mouse • Week-age and weight: 6-8 weeks of age, 18-22 grams of body weight • Sex: Female • Supplier: Shanghai Sippr-BK laboratory animal Co. Ltd.
Human breast cancer MDA-MB-231_luc cells were cultured in monolayer in vitro and the culture conditions were RPMI-1640 culture medium (supplier: Gibco; article number: 22400-089; manufacturing batch number: 4868546) with 10% fetal bovine serum, 100 U/ml penicillin and 100 μg/mL streptomycin. The culture was performed at 37° C. in 5% CO2. Conventional digestion treatment with pancreatin-EDTA for passage was carried out twice a week. When the cells were in the exponential growth phase, the cells were harvested, counted, and inoculated. […]
The experiment index was to investigate whether tumor growth was inhibited, delayed or cured. Tumor diameter was measured twice a week with vernier calipers. […]
The tumor inhibition effect of the compound was evaluated by TGI (%) or relative tumor proliferation rate T/C (%). […]
Relative tumor proliferation rate T/C (%) was calculated according to the below equation: T/C %=TRTV/CRTV×100% (TRTV: RTV of the treatment group; CRTV: RTV of the negative control group). The relative tumor volume (RTV) was calculated according to the results of the tumor measurement. […]

In data set [2] the test system is Human prostatic cancer PC-3 cells. As to the kind of experiment: In vivo pharmacodynamics, PC-3 subcutaneous xenograft tumor model. Particulars: 50 mg/kg PO BID x 21 days. How it is done: The formulation method of the test substance was the same as in Table 6, and the animal grouping and the dosage regimen were the same as in Table 7.
• Species: mouse • Strain: BALB/c nude mouse • Week-age and weight: 6-8 weeks of age, 18-22 grams of body weight • Sex: male • Supplier: Shanghai Sippr-BK laboratory animal Co. Ltd.
Human prostatic cancer PC-3 cells were cultured in monolayer in vitro, and the culture conditions were F-12K culture medium (supplier: Gibco; article number: 21127-022; manufacturing batch number: 1868870) with 10% fetal bovine serum, 100 U/mL penicillin and 100 μg/mL streptomycin. The culture was performed at 37° C. in 5% CO2. Conventional digestion treatment with pancreatin-EDTA for passage was carried out twice a week. When the cells were in the exponential growth phase, the cells were harvested, counted, and inoculated.
0.1 mL of 10×10^6 PC-3 cells were subcutaneously inoculated into the right-back of each nude mouse. The grouping and administration was started when the average tumor volume reached 100-150 mm^3.
3.3 Tumor measurement, experiment indices, and statistical analysis were the same as MDA-MB-231 model.

Data set [3] is described as follows: In vivo pharmacokinetics test in rat. Particulars: plasma, male SD rats, crystalline form A used; for AUC(0-inf): read-out: Area under curve (0-inf) AUC0-inf; for AUC(0-t): read-out: Area under curve (0-t) AUC0-last; for half-life: read-out: Half life T1/2 (converted). How it is done:
Male SD rats were used as test animals. The compound of formula (I) was administrated intravenously and intragastrically to rats, and then the drug concentrations in the plasma at different time points were determined by the LC/MS/MS method. The in vivo pharmacokinetic behavior of the compound of formula (I) in rats was studied, and its pharmacokinetic characteristics were evaluated.
1.1 Experiment Drug: The Compound of Formula (I) (the Crystalline Form A)
4 healthy adult male SD rats were divided into 2 groups according to the similar weight principle, with 2 rats in each group. The animals were commercially available from Beijing Weitonglihua Laboratory Animals Ltd., animal production license number: SCXK (Beijing) 2016-0006.
An appropriate amount of the sample was taken, 5% final volume of DMSO was added, and then 95% final volume of 20% HP-β-CD was added. The mixture was ultrasonically stirred to obtain a 0.5 mg/mL clear solution. After filtration, it was used for the intravenous administration.
An appropriate amount of the sample was taken, and dissolved in a 0.5% sodium carboxymethyl cellulose solution. The mixture was ultrasonically stirred to obtain a 1 mg/mL homogeneous suspension, which was used for the intragastric administration.
Four male SD rats were divided into two groups. After fasting overnight, the first group was administered intravenously with the administration volume of 4 mL/kg and the dosage of 2 mg/kg. The second group was administered intragastrically with the administration volume of 10 mL/kg and the dosage of 10 mg/kg.
After the male SD rats were intravenously administrated, 100 μL of blood was taken at each time point of 0.0833, 0.25, 0.5, 1, 2, 4, 6, 8 and 24 hours, and placed in test tubes containing 2 μL of EDTA-K2; and after the SD rats were intragastrically administrated, 100 μL of blood was taken at each time point of 0.0833, 0.25, 0.5, 1, 2, 4, 6, 8 and 24 hours, and placed in test tubes containing 2 μL of EDTA-K2. The tube was centrifuged at 3000 g for 15 minutes to separate the plasma, and the separated plasma was stored at −60° C. Animals could be fed 2 hours after the administration.
The LC/MS/MS method was used to measure the content of the compound to be tested in the plasma after the intravenous and intragastric administration to the rats. The linear range of the method was 2.00-6000 nmol/L; the plasma samples were analyzed after the protein precipitation by acetonitrile treatment.

These results are taken from patent US12344620B2, “BRD4 inhibitor compound in solid form and preparation method therefor and use thereof” (CSPC ZHONGQI PHARMACEUTICAL TECHNOLOGY (SHIJIAZHUANG) CO., …, priority 2019, dated 2025).

Each structure is given as a SMILES string. Where two headings read alike, the source gives them in different places.

As to `Cc1sc2c(c1C)C(c1ccc(Cl)cc1)=N[C@@H](CC(=O)Nc1ccc3c(c1)COC3=O)c1nnc(C)n1-2` [Compound of formula (I)], in data set [1], the “change in body weight of the animals” value is reported as “no significant change” and the tolerability result is reported as “well tolerated”. Also, in data set [2], the tolerability entry is listed as “well tolerated”. Moreover, in data set [3] (intravenous, 2 mg/kg, read-out: Apparent distribution Vdss), the Vd came to 1.48 L/kg. Further, in data set [3] (intravenous, 2 mg/kg), the AUC(0-inf) was 2.22 µM·h, the AUC(0-t) is 2.21 µM·h and the half-life was 0.683 h. Besides, the clearance – broadly, a measure of how efficiently the substance is removed, as volume per time – in data set [3] (intravenous, 2 mg/kg, read-out: Clearance rate Cl) stood at 28.3 mL/min/kg. In data set [3] (po, intragastric, 10 mg/kg), the bioavailability (usually dose-corrected exposure relative to a reference, in per cent) is 29.3%; the AUC(0-inf) worked out at 3.25 µM·h; the AUC(0-t) turned out to be 3.22 µM·h; the half-life was 1.01 h. In data set [3] (po, intragastric, 10 mg/kg, read-out: Drug concentration in blood Cmax), the Cmax came out at 1160 nM. Moreover, in data set [3] (po, intragastric, 10 mg/kg, read-out: Time to peak Tmax), the time of peak concentration (Tmax) (usually the time at which the peak concentration occurs) turned out to be 1 h.
